We go through 12 compounds from US20050107456A1, “Substituted pyrazolines for use as pesticides” (priority 2002, published 2005).

Where two headings read alike, the source gives them in different places.

Series [1] can be described thus: logP determination by HPLC on a reversed-phase column (EEC Directive 79/831 Annex V.A8). In kind it is physicochemical. The following applies: for chromatographic logP: read-out: logP (pH2). The protocol:
The logP values given in the Preparation Examples and the tables above are determined in accordance with EEC Directive 79/831 Annex V.A8 by HPLC (High Performance Liquid Chromatography) on a reversed-phase column (C 18). Temperature: 43° C.
The determination is carried out in the acidic range at pH 2.3 using the mobile phases 0.1% aqueous phosphoric acid and acetonitrile; linear gradient from 10% acetonitrile to 90% acetonitrile.
Calibration is carried out using unbranched alkan-2-ones (having 3 to 16 carbon atoms) with known logP values (determination of the logP values by the retention times using linear interpolation between two successive alkanones).

The test system of series [2] is caterpillars of the army worm (Spodoptera frugiperda). Briefly: Spodoptera frugiperda test. In kind it is in vivo. The following applies: active compound concentration 500 ppm, after 7 days, dipped cabbage leaves. The procedure: (§1) Spodoptera Frugiperda Test Solvent: 7 parts by weight of dimethylformamide Emulsifier: 2 parts by weight of alkylaryl polyglycol ether To produce a suitable preparation of active compound, 1 part by weight of active compound is mixed with the stated amounts of solvent and emulsifier, and the concentrate is diluted with emulsifier-containing water to the desired concentration. Cabbage leaves (Brassica oleracea) are treated by being dipped into the preparation of active compound of the desired concentration and are populated with caterpillars of the army worm (Spodoptera frugiperda) while the leaves are still moist. After the desired period of time, the kill in % is determined. 100% means that all caterpillars have been killed; 0% means that none of the caterpillars have been killed.

The subject of series [3] is larvae of the mustard beetle (Phaedon cochleariae). The experiment in a line: Phaedon larvae test. Conditions: active compound concentration 500 ppm, after 7 days, dipped cabbage leaves. It is filed as in vivo. The procedure:
as §1, with “Phaedon Larvae Test” for “Spodoptera Frugiperda Test”, “with larvae” for “with caterpillars”, “the mustard beetle (Phaedon cochleariae)” for “the army worm (Spodoptera frugiperda)”, “all beetle larvae” for “all caterpillars”, “the beetle larvae” for “the caterpillars”

The mark [4] stands for this setting: HPLC, reversed-phase C 18, 43° C., acidic range pH 2.3, 0.1% aqueous phosphoric acid/acetonitrile.
[5] abbreviates: reversed-phase C18 HPLC column, HPLC, reversed-phase C 18, 43° C., acidic range pH 2.3, 0.1% aqueous phosphoric acid/acetonitrile.

As to “4-(5-tert-butyltetrazol-2-yl)nitrobenzene”, in series [1] (setting [4]), the “logP (pH2)” value stood at 2.20.

Turning to `N#Cc1cnn(CC(=O)c2ccc(Cl)cc2)c1` [2-(4-cyanopyrazol-1-yl)-4′-chloroacetophenone], the chromatographic logP in series [1] (setting [4]) is 2.2. With `N#Cc1cnn(C2CNN=C2c2ccc(Cl)cc2)c1` (stereo not drawn) [3-(4-chlorophenyl)-4-(4-cyanopyrazol-1-yl)-4,5-dihydro-1H-pyrazole], the chromatographic logP in series [1] (setting [5]) stood at 2.11. Still for that read-out and setting: the result for `CC(C)(C)n1nnc(-c2ccc(N)cc2)n1` [4-(2-tert-butyltetrazol-5-yl)aniline] reads 1.69; that for `CC(C)(C)c1noc(-c2ccc(N)cc2)n1` [4-(3-tert-butyl[1,2,4]oxadiazol-5-yl)aniline], 2.54; that for `CC(C)(C)c1nc(-c2ccc(N)cc2)no1` [4-(5-tert-butyl[1,2,4]oxadiazol-3-yl)aniline], 2.31.

Turning to `CC(C)(C)c1nnn(-c2ccc(N)cc2)n1` [4-(5-tert-butyltetrazol-2-yl)aniline], the chromatographic logP in series [1] (setting [5]) was determined as 2.27.

Take `N#Cc1cnn(C2CN(C(=O)Nc3ccc(-c4ccccc4)cc3)N=C2c2ccc(Cl)cc2)c1` (stereo not drawn) [Compound 1, N-(4-phenyl)-3-(4-chlorophenyl)-4-(4-cyanopyrazol-1-yl)-4,5-dihydro-1-pyrazolecarboxanilide]: the chromatographic logP in series [1] (setting [5]) was found to be 4.11. The kill in % in series [2] was 100%. Consider `CC(C)(C)c1nc(-c2ccc(NC(=O)N3CC(n4cc(C#N)cn4)C(c4ccc(Cl)cc4)=N3)cc2)no1` (stereo not drawn) [Compound 2, N-[4-(5-tert-butyl[1.2.4]oxadiazol-3-yl)-phenyl]-3-(4-chlorophenyl)-4-(4-cyanopyrazol-1-yl)-4,5-dihydro-1-pyrazolecarboxamide], for which the “logP (pH2)” value in series [1] (pH 2.3) is reported as 4.33. Further, the kill in % in series [3] and in series [2] was 100% in each case. Regarding `CC(C)(C)c1noc(-c2ccc(NC(=O)N3CC(n4cc(C#N)cn4)C(c4ccc(Cl)cc4)=N3)cc2)n1` (stereo not drawn) [Compound 3, N-[4-(3-tert-butyl[1,2,4]oxadiazol-5-yl)-phenyl]-3-(4-chlorophenyl)-4-(4-cyanopyrazol-1-yl)-4,5-dihydro-1-pyrazolecarbox-amide], in series [1] (pH 2.3), the “logP (pH2)” value is on record as 4.38. This compound also returned a kill in % in series [2] of 100%. Take `CC(C)(C)n1nnc(-c2ccc(NC(=O)N3CC(n4cc(C#N)cn4)C(c4ccc(Cl)cc4)=N3)cc2)n1` (stereo not drawn) [Compound 4, N-[4-(2-tert-butyltetrazol-5-yl)phenyl]-3-(4-chlorophenyl)-4-(4-cyanopyrazol-1-yl)-4,5-dihydro-1-pyrazolecarboxamide]: the chromatographic logP in series [1] (setting [5]) amounted to 3.91. The kill in % in series [3] and in series [2] was 100% in each case. As for `CC(C)(C)c1nnn(-c2ccc(NC(=O)N3CC(n4cc(C#N)cn4)C(c4ccc(Cl)cc4)=N3)cc2)n1` (stereo not drawn) [Compound 5, N-[4-(5-tert-butyltetrazol-2-yl)phenyl]-3-(4-chlorophenyl)-4-(4-cyanopyrazol-1-yl)-4,5-dihydro-1-pyrazolecarboxamide], the chromatographic logP in series [1] (setting [5]) stood at 4.27.
